Legend:
[1] = target: T1, cGMP-dependent protein kinase 1 (Homo sapiens) (UniProt Q13976); assay: Inhibition of human full length PKG-1a expressed in baculovirus assessed as substrate phosphorylation using fluorescence-labelled peptides as substrate at 95 uM after 90 mins by microfluidic peptide phosphorylation assay
T1 sequence (whole entry): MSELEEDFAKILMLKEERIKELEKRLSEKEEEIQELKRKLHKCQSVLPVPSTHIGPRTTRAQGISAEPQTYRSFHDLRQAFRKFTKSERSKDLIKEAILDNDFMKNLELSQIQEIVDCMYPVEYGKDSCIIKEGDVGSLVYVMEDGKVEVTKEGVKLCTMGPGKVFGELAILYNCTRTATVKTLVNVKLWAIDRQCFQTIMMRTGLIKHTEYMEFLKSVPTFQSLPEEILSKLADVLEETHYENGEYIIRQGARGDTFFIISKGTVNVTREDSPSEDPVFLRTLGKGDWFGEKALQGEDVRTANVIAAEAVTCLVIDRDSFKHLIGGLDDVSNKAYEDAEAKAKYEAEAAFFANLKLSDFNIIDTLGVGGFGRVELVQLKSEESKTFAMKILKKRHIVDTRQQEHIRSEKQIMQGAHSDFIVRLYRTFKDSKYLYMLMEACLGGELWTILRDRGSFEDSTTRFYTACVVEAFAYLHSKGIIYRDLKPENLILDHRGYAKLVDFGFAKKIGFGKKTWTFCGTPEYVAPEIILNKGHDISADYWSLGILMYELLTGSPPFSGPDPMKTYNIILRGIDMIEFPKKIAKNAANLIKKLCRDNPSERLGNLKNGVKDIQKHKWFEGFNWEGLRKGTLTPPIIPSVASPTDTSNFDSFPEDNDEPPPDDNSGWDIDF

[2] = species: Homo sapiens; assay: Inhibition of human P70S6K catalytic domain expressed in baculovirus assessed as substrate phosphorylation using fluorescence-labelled peptides as substrate at 95 uM after 90 mins by microfluidic peptide phosphorylation assay
[3] = target: T1, cGMP-dependent protein kinase 1 (Homo sapiens); assay: Inhibition of human full length PKG-1beta expressed in baculovirus assessed as substrate phosphorylation using fluorescence-labelled peptides as substrate at 0.2 uM after 90 mins by microfluidic peptide phosphorylation assay
[4] = target: Ribosomal protein S6 kinase alpha-5 (Homo sapiens) (UniProt O75582); assay: Inhibition of human full length MSK1 expressed in baculovirus assessed as substrate phosphorylation using fluorescence-labelled peptides as substrate at 2 uM after 90 mins by microfluidic peptide phosphorylation assay
[5] = target: T2, Interleukin-1 receptor-associated kinase 4 (Homo sapiens) (UniProt Q9NWZ3); assay: Inhibition of human IRAK4 catalytic domain expressed in baculovirus assessed as substrate phosphorylation using fluorescence-labelled peptides as substrate at […] after 90 mins by microfluidic peptide phosphorylation assay
T2 sequence (whole entry): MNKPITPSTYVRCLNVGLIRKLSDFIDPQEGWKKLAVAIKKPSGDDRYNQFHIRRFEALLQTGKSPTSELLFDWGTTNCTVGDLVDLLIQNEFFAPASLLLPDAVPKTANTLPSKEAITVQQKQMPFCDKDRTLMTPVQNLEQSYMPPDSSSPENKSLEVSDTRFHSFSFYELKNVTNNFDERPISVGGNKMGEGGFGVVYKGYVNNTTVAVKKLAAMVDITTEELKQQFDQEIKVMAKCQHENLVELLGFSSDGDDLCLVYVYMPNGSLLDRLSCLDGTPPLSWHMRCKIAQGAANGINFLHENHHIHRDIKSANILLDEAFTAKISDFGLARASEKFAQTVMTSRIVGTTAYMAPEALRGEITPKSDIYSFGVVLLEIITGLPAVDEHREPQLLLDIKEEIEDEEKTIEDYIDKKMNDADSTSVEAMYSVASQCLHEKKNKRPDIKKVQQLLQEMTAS

[6] = target: Ribosomal protein S6 kinase alpha-5 (Homo sapiens) (UniProt O75582); assay: Inhibition of human full length MSK1 expressed in baculovirus assessed as substrate phosphorylation using fluorescence-labelled peptides as substrate at […] after 90 mins by microfluidic peptide phosphorylation assay
[7] = target: Dual specificity tyrosine-phosphorylation-regulated kinase 1A (Rattus norvegicus) (UniProt Q63470); assay: Inhibition of rat full length DYRK1a expressed in Escherichia coli cell assessed as substrate phosphorylation using fluorescence-labelled peptides as substrate at 420 uM after 90 mins by microfluidic peptide phosphorylation assay
[8] = target: Ribosomal protein S6 kinase alpha-1 (Homo sapiens) (UniProt Q15418); conditions: 9 uM
Description: Inhibition of human full length RSK1 expressed in baculovirus assessed as substrate phosphorylation using fluorescence-labelled peptides as substrate at 9 uM after 90 mins by microfluidic peptide phosphorylation assay

[9] = target: T3, Protein kinase C zeta type (Homo sapiens) (UniProt Q05513); assay: Inhibition of human full length PKC zeta expressed in baculovirus assessed as substrate phosphorylation using fluorescence-labelled peptides as substrate at 70 uM after 90 mins by microfluidic peptide phosphorylation assay
T3 sequence (whole entry): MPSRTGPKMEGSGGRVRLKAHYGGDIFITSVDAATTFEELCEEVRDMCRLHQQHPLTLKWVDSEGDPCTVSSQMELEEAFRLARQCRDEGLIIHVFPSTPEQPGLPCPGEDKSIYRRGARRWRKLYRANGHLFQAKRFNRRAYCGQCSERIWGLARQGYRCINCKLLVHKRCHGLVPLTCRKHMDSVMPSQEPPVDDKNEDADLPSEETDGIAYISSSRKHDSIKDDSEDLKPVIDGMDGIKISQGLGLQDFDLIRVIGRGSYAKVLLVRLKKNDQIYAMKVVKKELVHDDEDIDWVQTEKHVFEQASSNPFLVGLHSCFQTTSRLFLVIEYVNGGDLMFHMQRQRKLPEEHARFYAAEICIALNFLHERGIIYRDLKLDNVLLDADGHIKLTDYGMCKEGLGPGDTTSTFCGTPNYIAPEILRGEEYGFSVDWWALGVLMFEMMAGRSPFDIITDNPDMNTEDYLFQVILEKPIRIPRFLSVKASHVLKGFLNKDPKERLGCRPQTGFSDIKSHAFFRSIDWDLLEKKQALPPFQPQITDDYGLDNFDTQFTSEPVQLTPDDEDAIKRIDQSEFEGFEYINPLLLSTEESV

Ribosomal protein S6 kinase alpha-5 (Homo sapiens), sequence (O75582 whole entry, looked up, the tested form may be a part): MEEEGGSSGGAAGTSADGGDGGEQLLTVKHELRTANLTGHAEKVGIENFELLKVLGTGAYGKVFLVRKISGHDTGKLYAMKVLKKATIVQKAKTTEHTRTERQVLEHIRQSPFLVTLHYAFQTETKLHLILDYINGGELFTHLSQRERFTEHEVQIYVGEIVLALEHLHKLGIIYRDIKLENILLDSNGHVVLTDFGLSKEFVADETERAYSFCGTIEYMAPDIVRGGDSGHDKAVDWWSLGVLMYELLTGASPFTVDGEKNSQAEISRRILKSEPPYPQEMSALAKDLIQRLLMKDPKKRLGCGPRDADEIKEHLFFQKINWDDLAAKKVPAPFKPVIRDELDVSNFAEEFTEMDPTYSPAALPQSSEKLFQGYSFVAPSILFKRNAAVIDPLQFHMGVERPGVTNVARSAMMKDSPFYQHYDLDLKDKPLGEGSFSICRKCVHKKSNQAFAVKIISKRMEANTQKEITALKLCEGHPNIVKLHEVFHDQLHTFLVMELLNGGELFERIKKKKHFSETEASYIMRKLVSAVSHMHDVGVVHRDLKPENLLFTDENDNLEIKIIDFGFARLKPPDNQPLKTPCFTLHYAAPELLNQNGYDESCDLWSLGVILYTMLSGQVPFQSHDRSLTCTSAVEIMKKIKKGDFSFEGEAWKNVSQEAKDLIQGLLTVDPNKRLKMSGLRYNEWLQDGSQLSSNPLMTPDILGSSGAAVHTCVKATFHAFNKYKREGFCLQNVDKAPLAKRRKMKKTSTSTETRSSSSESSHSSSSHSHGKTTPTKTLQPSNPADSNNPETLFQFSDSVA
Ribosomal protein S6 kinase alpha-1 (Homo sapiens), sequence (Q15418 whole entry): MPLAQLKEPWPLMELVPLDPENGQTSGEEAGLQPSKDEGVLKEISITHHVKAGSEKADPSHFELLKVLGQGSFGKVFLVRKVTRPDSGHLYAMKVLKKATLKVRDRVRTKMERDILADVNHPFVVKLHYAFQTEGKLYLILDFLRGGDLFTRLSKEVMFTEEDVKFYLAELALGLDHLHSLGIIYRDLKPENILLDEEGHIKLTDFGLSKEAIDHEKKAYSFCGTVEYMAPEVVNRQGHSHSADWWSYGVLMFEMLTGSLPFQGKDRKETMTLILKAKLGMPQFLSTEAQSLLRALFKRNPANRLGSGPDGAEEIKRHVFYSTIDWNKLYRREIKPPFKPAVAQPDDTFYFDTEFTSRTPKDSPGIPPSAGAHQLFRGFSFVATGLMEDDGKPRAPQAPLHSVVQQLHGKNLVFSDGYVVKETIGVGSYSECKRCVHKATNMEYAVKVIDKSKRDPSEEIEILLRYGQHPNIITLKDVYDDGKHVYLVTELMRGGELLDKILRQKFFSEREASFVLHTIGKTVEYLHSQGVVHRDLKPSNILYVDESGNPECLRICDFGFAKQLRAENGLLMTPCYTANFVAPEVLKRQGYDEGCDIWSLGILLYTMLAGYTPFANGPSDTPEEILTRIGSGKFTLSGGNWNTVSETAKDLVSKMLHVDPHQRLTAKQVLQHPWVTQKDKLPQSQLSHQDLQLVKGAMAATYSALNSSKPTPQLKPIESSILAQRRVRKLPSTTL

**Q.** For `NCCc1ccc(-c2ncnc3[nH]cnc23)cc1`, which inhibition [1] is on record?
**A.** 92%

**Q.** What about the inhibition [2] of the same compound?
**A.** 49%

**Q.** Which inhibition [3] does the source give for `Clc1ccc(C2(c3ccc(-c4ncnc5[nH]cnc45)cc3)CCNCC2)cc1` here?
**A.** 88.5%

**Q.** For `NC1CCN(c2ncnc3[nH]ccc23)CC1`, which inhibition [4] is on record?
**A.** 0.5%

**Q.** Which results are given for `COC(=O)c1cnc(Nc2cnc(C#N)cn2)cc1NCC1CCNCC1`?
**A.** inhibition [5]: 5.5%; inhibition [6]: 8%

**Q.** `c1nc(N2CCOCC2)c2nc[nH]c2n1` was tested. Which inhibition [7] did it give?
**A.** 77%

**Q.** How did the inhibition [8] turn out when `NCC1CN(c2ncnc3[nH]c4cnccc4c23)CCO1` (centres undefined) was run?
**A.** 91%

**Q.** With `CNCc1ccc(-c2ncnc3[nH]cnc23)cc1` as the compound, how does the inhibition [9] read?
**A.** 0%

From ChEMBL document CHEMBL3132769, “Fragment growing to retain or alter the selectivity of anchored kinase hinge-binding fragments” (Medchemcomm, 2014)
